For data set [1], the target named is T1, Melanin-concentrating hormone receptor 1 (Homo sapiens, UniProt Q99705). The data set can be described thus: Displacement of [125I]MCH from MCHr1 expressed in IMR32 cells. The data set is classed as cell-based, IMR-32. A general note: Loss of bound radioactivity is the signal in a displacement assay; it reports binding, not function.
Data set [2] deals with T1, Melanin-concentrating hormone receptor 1. Briefly: Inhibition of MCH-mediated calcium release in whole IMR32 cells by FLIPR. It counts as functional, cell-based, IMR-32.
The target of data set [3] is Voltage-gated inwardly rectifying potassium channel KCNH2 (Homo sapiens, UniProt Q12809). Briefly: Binding affinity to hERG stably transfected in HEK293 cells. It counts as cell-based. Background: The hERG channel carries a current that helps repolarise heart muscle cells.
The nature of data set [4]: Cmax in DIO mouse brain at 10 mg/kg. It counts as ADME, organism-based. More on the design: dose 10 mg/kg.
The nature of data set [5]: Cmax in DIO mouse plasma at 10 mg/kg. It counts as ADME, organism-based. More on the design: dose 10 mg/kg.
The nature of data set [6]: Brain to plasma AUC ratio in DIO mouse at 10 mg/kg. The data set is classed as ADME, organism-based. The conditions noted are these: read-out: Ratio AUC. Details: dose 10 mg/kg.
Data set [7] in a line: Half life in DIO mouse brain at 10 mg/kg. It counts as ADME, organism-based. Details: dose 10 mg/kg.
Data set [8] in a line: AUC in DIO mouse plasma at 10 mg/kg. The data set is classed as ADME, organism-based. Details: dose 10 mg/kg.
Data set [9] in a line: Plasma half life in DIO mouse at 10 mg/kg. The data set is classed as ADME, organism-based. Details: dose 10 mg/kg.
Data set [10] can be described thus: AUC in DIO mouse brain at 10 mg/kg. The data set is classed as ADME, organism-based. Details: dose 10 mg/kg.

pIC50, pKi: −log10 of the molar value.

T1 sequence (Q99705 whole entry): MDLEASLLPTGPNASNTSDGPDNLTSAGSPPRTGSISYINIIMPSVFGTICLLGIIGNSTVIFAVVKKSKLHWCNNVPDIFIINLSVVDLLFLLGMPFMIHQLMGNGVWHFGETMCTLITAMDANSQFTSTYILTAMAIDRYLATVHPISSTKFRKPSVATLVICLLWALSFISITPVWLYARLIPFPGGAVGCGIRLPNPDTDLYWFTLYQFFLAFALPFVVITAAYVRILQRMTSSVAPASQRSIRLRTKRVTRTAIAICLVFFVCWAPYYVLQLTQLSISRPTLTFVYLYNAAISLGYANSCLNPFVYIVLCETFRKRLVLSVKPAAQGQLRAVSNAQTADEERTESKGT
Voltage-gated inwardly rectifying potassium channel KCNH2, sequence (Q12809 whole entry): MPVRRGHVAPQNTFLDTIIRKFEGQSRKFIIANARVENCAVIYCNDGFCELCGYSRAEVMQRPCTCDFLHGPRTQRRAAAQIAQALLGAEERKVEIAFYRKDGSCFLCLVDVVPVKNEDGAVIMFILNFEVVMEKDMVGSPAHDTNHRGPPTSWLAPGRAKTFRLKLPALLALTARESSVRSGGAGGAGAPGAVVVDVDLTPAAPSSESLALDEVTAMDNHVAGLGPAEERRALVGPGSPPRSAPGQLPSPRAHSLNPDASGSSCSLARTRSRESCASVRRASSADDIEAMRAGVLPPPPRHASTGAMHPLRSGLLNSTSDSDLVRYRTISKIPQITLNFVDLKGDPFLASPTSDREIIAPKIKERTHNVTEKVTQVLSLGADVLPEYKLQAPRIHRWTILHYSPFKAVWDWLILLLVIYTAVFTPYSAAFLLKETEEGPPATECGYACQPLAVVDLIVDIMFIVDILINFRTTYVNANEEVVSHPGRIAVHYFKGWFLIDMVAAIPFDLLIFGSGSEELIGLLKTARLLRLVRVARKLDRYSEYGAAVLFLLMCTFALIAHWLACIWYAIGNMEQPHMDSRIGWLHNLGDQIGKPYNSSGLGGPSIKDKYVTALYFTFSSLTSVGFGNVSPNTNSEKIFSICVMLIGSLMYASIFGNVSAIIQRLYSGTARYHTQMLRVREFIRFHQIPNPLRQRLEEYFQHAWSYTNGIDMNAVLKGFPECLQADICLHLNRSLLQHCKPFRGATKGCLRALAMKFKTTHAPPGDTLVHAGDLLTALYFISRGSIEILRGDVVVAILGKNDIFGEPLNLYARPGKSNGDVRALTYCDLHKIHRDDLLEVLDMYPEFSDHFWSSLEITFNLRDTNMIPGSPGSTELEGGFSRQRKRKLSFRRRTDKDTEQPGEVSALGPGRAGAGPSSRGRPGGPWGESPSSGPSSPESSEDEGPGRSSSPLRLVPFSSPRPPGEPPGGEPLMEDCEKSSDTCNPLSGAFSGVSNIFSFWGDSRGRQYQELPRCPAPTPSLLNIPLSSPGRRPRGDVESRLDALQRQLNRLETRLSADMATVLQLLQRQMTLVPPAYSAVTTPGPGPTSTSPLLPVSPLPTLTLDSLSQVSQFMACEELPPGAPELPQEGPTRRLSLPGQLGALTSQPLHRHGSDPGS

On to `Cn1c(=O)nc(NC2CC3CCC(C2)N3Cc2ccc3c(c2)OCO3)c2cc(Cl)ccc21` (stereo in doubt; 4g), for which the pIC50 (as a rule, −log10 of the IC50, conventionally taken in molar units) in data set [1] was 8.05; in data set [2] it was 7.28.
As to `COc1ccc2c(c1)c(NC1CCN(Cc3ccc4c(c3)OCO4)CC1)cc(=O)n2C`, the pIC50 in data set [1] was 8.52; in data set [2], 7.70. The pKi – broadly, the Ki on a negative log10 scale, so that one unit is a factor of ten – in data set [3] was 6.11.
As to `O=c1cc(NC2CCN(Cc3ccc4c(c3)OCO4)CC2)c2cc(Cl)ccc2[nH]1`, the pIC50 in data set [1] is 8.40; in data set [2] it was 7.59.
For `O=c1cc(NC2CCN(Cc3ccc4c(c3)OCO4)CC2)c2cc(Cl)ccc2n1Cc1ccccc1`, the figures for the pIC50 in [1] and in data set [2] were 9.10 and 7.38, respectively. In data set [3], this compound had a pKi of 6.55.
As for `O=c1nc(NC2CC3CCC(C2)N3Cc2ccc3c(c2)OCO3)c2cc(Cl)ccc2n1CC(F)(F)F` (stereo not drawn), the pIC50 in data set [1] is 8.40; in data set [2], 7.51. Besides, the pKi in [3] was 6.92.
As for `O=c1cc(NC2CCN(Cc3ccc4c(c3)OCO4)CC2)c2cc(Cl)ccc2n1Cc1ccccn1`, the figures for the pIC50 in [1] and in data set [2] were 8.92 and 7.70, respectively. The compound further gave a pKi in data set [3] of 6.26.
As to `Cn1c(=O)c(C(=O)N2CCCC2)c(NC2CCN(Cc3ccc4c(c3)OCO4)CC2)c2cc(Cl)ccc21`, the pIC50 was 7.80 in data set [1] and 7.28 in [2]. The same compound showed a pKi in [3] below 5.70.
The like results for `O=c1nc(NC2CCN(Cc3ccc4ccccc4c3)CC2)c2cc(Cl)ccc2n1CC(F)(F)F` were, in that order, 8.30, 7.21 and 6.82.
The matching figures for `CCCCCn1c(=O)nc(NC2CCN(Cc3ccc4c(c3)OCO4)CC2)c2cc(Cl)ccc21`: 7.92, 7.30 and 6.87.
The like results for `Cn1c(=O)c(C#N)c(NC2CCN(Cc3ccc4ccccc4c3)CC2)c2cc(Cl)ccc21` were, in that order, 7.92, 6.71 and below 5.70.
On to `Cn1c(=O)cc(NC2CCN(C/C=C/c3ccccc3)CC2)c2cc(Cl)ccc21`, for which the pIC50 in data set [1] was 8.00; in [2] it was 7.06. In addition, the pKi in [3] was 7.52.
In the case of `O=c1cc(NC2CCN(Cc3ccc4c(c3)OCO4)CC2)c2cc(Cl)ccc2n1Cc1ccncc1`, the results for the Cmax in data set [4] and in [5] were 200 ng/mL and 680 ng/mL, respectively. Also, the pIC50 in data set [1] is 8.96; in data set [2] it was 7.54. Besides, the Kp in [6] came out at 0.29. Besides, the half-life – broadly, how long it takes for the measured level to halve – in data set [7] is 2.5 h; in data set [9], 2.3 h. Moreover, the AUC (as a rule, the area under the concentration-time curve, a measure of exposure) came out at 2100 ng·h/mL in [8] and 730 ng·h/mL in [10]. For the same compound, the pKi in data set [3] was 6.45.
On to `Cn1c(=O)nc(NC2CCN(Cc3ccc4ncccc4c3)CC2)c2cc(Cl)ccc21`, for which the pIC50 in data set [1] was 7.92; in data set [2] it was 7.18.
`Cn1c(=O)nc(NC2CCN(Cc3ccc4c(c3)OCO4)CC2)c2cc(Cl)ccc21`: the values for the Cmax in data set [4] and in [5] were 230 ng/mL and 2200 ng/mL, respectively. Moreover, the pIC50 in data set [1] was 8.30; in [2], 7.21. The Kp in data set [6] turned out to be 0.13. The values for the half-life in [7] and in data set [9] were 1.9 h and 1.6 h, respectively. Besides, the AUC in data set [8] was found to be 5100 ng·h/mL; in data set [10], 650 ng·h/mL. For the same compound, the pKi in data set [3] was 6.82.
Regarding `Cn1c(=O)nc(NC2CC3CCC(C2)N3Cc2ccc3c(c2)OCO3)c2cc(Cl)ccc21` (stereo in doubt; 4i), the pIC50 in data set [1] is 7.17; in data set [2] it was 6.87.
For `O=c1cc(NC2CCN(Cc3ccc4ccccc4c3)CC2)c2cc(Cl)ccc2n1Cc1ccccn1`, the pIC50 in data set [1] is 9.05; in [2], 7.26. In data set [3], the pKi is 7.06.
The like results for `Cn1c(=O)cc(NC2CCN(Cc3ccc4c(c3)OCO4)CC2)c2cc(OC(F)(F)F)ccc21` were, in that order, 7.47, 6.98 and 5.74.
With `COC(=O)c1c(NC2CCN(Cc3ccc4c(c3)OCO4)CC2)c2cc(Cl)ccc2n(C)c1=O`, the pIC50 in data set [1] is 7.01; in data set [2], 6.34. Also, in data set [3], the pKi is 5.84.
The matching figures for `Cn1c(=O)cc(NC2CCN(Cc3ccc4ccccc4c3)CC2)c2cc(Cl)ccc21`: 8.30, 7.00 and 6.67.
Consider `N#Cc1c(NC2CCN(Cc3ccc4c(c3)OCO4)CC2)c2cc(Cl)ccc2[nH]c1=O`, for which the figures for the pIC50 in data set [1] and in data set [2] were 7.82 and 7.70, respectively. This compound also had a pKi in data set [3] of 6.38.
For the compound `Cn1c(=O)cc(NC2CCN(Cc3ccc4c(c3)OCO4)CC2)c2cc(OC(F)F)ccc21`, the pIC50 in data set [1] is 8.30; in data set [2], 7.47. This compound also had a pKi in data set [3] below 5.70.
`O=c1nc(NC2CCN(Cc3ccc4c(c3)OCO4)CC2)c2cc(Cl)ccc2n1CC(F)(F)F`: the pIC50 was 8.70 in data set [1] and 7.54 in data set [2]. Also, in data set [3], the pKi was 6.35.
As to `Cn1c(=O)c(C#N)c(NC2CCN(Cc3ccc4c(c3)OCO4)CC2)c2cc(Cl)ccc21`, the Cmax (commonly the peak of the concentration-time curve) in data set [4] turned out to be 160 ng/mL; in data set [5], 1600 ng/mL. In addition, the pIC50 is 7.62 in [1] and 7.16 in data set [2]. Also, in [6], the Kp came to 0.11. Besides, the results for the half-life in data set [7] and in [9] were 2 h and 1.9 h, respectively. The AUC in data set [8] came to 5900 ng·h/mL; in [10], 620 ng·h/mL.
Regarding `Cn1c(=O)nc(NC2CCN(Cc3ccc4ccccc4c3)CC2)c2cc(Cl)ccc21`, the values for the pIC50 in [1] and in data set [2] were 8.15 and 7.14, respectively. This compound also had a pKi in [3] of 6.80.
